Peptide text beside a SMILES is read from it. * marks the point of attachment. Cbz = O=C(OCc1ccccc1)*
Assays:
[1] = system: proteasome; conditions: 20 μM; Chen et al., 1995; cited from earlier work
[2] = target: T1, IKK (Homo sapiens, UniProt O14920+O15111); test: In vitro assay for IKK activation by TRAF6 (IκBα phosphorylation); assay type: biochemical; conditions: inhibitor at 20 μM added to the assay
T1 construct: IKK complex was purified form HeLa cells or from calf thymus using ATP-Sepharose; endogenous in cells
Procedure: In vitro Assay for IKK Activation. To detect endogenous IKK activation, cell extracts (5 mg/ml) were incubated with TRAF6 (or, T6RZC, 0.1 μM) together with an ATP regenerating buffer (Chen et al., 1995). After incubation at 30° C. for 1 hour, the reaction was analyzed by immunoblotting with a phospho-IκBα specific antibody. To identify intermediary factors involved in TRAF6-mediated IKK activation, the inventors used a reconstitution assay by adding ^35S-IκBα (0.5 μl) and purified IKK complex (5 nM) to a 5 μl reaction mixture that also contains ATP (2 mM), TRAF6 (0.1 μM), and column fractions (0.5-1 μl). In most IKK activation assays, E1 (0.1 μM) and Ub (0.1 mM) were also added to enhance the reaction, although they can be supplied from the wheat germ extracts used for in vitro translation of IκBα. As an assay for purification of TRIKA1, reaction mixtures also contain 0.5 μg TRIKA2/FrIIa, a fraction eluted from Q-Sepharose with 0.2M NaCl. The reaction was carried out at 30° C. for 1 hour, and then analyzed using a PhosphorImager (Molecular Dynamics) following SDS-PAGE.

[3] = system: T6RZC stable 293 cells; test: Coumermycin A-induced TRAF6-gyrase B (T6RZC) dimerization in stable 293 cells, IκBα degradation; assay type: cell-based, human; conditions: 293 cells stably expressing T6RZC; coumermycin A 1 μM
Procedure: Generation of TRAF6-gyraseB stable cell lines. The TRAF6-gyrase B fusion was constructed by replacing the C-terminal TRAF domain of TRAF6 (residues 1-358) with the N-terminal fragment of bacterial gyrase B (T6RZC). Another chimeric construct contained residues 1-291 of TRAF6 (T6RZ). These chimeras were cloned into the mammalian expression vector pEF-IRES-P (Deng et al., 2000). Following transfection of DNA into 293 cells, stable clones were selected in puromycin (1 μg/ml). To induce the dimerization of TRAF6 and subsequent activation of the JNK and IKK pathways, cells were treated with coumermycin A (1 μM) for different lengths of time, and then cell extracts prepared for further analysis.

T1 sequence (O14920 whole entry): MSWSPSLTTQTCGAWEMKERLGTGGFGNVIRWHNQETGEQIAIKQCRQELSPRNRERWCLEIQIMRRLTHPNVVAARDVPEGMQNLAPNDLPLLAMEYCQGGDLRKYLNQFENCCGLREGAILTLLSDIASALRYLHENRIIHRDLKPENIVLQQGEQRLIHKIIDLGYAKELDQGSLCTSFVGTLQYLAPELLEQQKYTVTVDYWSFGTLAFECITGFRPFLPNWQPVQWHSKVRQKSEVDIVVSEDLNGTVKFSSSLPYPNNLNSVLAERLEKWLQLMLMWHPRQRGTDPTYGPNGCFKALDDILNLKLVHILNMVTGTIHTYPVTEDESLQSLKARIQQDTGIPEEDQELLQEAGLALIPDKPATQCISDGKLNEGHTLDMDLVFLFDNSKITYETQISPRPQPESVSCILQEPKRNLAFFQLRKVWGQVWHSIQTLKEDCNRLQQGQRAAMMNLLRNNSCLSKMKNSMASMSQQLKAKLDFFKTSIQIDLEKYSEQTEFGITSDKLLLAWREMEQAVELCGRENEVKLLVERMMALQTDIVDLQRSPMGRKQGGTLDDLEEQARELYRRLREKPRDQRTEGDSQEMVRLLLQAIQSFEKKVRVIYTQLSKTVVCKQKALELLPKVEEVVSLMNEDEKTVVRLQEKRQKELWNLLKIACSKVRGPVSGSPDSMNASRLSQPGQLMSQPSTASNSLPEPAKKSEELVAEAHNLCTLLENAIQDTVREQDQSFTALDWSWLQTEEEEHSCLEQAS
T1 sequence (O15111 whole entry): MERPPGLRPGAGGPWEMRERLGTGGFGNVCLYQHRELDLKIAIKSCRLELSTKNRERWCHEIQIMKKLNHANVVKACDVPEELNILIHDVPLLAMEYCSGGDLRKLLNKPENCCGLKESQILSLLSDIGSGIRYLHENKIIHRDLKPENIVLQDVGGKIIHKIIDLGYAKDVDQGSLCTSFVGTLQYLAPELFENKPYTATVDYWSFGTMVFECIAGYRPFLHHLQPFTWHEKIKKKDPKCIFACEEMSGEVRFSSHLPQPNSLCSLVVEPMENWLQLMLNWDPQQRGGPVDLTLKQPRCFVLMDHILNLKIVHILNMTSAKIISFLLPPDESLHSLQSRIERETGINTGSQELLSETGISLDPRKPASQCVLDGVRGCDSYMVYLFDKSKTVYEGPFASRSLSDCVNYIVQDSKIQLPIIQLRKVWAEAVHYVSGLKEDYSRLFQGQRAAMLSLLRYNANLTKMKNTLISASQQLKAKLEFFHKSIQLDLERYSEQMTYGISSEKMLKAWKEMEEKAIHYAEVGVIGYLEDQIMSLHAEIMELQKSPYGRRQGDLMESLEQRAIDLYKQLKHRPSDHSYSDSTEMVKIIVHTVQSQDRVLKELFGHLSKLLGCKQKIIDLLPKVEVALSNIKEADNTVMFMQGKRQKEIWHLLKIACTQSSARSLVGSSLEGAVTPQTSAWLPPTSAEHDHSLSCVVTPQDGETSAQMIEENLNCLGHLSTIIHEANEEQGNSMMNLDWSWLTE
T1 sequence (Q9Y6K9 whole entry partner): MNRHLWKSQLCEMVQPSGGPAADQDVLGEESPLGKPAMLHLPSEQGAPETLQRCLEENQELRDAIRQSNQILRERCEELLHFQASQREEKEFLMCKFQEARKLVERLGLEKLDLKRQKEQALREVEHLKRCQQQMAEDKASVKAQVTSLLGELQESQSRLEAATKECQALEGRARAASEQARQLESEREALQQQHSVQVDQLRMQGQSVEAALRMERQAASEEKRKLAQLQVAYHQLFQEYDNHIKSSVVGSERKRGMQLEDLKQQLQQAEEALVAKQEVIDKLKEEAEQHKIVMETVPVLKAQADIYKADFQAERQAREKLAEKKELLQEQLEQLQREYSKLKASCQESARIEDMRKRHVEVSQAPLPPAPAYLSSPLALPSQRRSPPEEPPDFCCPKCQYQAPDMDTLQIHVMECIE

Row | SMILES | Block of proteasomal activity [1] | Inhibition of IKK activation by TRAF6 [2] | Degradation of IκBα upon addition of the dimerizer [3]
1 | CC(C)C[C@@H](C=O)NC(=O)[C@H](CC(C)C)NC(=O)[C@H](CC(C)C)NC(=O)OCc1ccccc1 [MG132] (Cbz-Leu-Leu-Leu-aldehyde) | completely block | No inhibition | –
2 | CO[C@H]1[C@H](OC(=O)c2ccc(C)[nH]2)[C@H](O)[C@@H](Oc2ccc3c(O)c(NC(=O)c4c[nH]c(C(=O)Nc5c(O)c6ccc(O[C@H]7OC(C)(C)[C@@H](OC)[C@H](OC(=O)c8ccc(C)[nH]8)[C@@H]7O)c(C)c6oc5=O)c4C)c(=O)oc3c2C)OC1(C)C [coumermycin A] | – | – | rapidly degraded
3 | CC(=O)N[C@@H](CSC(=O)[C@]1([C@@H](O)C(C)C)NC(=O)[C@H](C)[C@@H]1O)C(=O)O [lactacystin] | completely block | No inhibition | –

Reference: patent publication US20030073097A1, “TRAF6-regulated IKK activators (TRIKA1 and TRIKA2) and their use as anti-inflammatory targets” (priority 2001, published 2003)
